The source of these data is publication PMC5773487, “Harnessing insulin- and leptin-induced oxidation of PTP1B for therapeutic development” (Nature Communications, 2018).

One assay has as its target T1, PTP1B-OX (Homo sapiens, UniProt P18031).
T1 construct: Purified PTP1B (1–321) (100 nM) was mixed with increasing concentrations of H2O2; 6xHis (C); made in house; host or cells: E. coli BL21 (DE3)-RIL
T1 sequence (P18031 1-321): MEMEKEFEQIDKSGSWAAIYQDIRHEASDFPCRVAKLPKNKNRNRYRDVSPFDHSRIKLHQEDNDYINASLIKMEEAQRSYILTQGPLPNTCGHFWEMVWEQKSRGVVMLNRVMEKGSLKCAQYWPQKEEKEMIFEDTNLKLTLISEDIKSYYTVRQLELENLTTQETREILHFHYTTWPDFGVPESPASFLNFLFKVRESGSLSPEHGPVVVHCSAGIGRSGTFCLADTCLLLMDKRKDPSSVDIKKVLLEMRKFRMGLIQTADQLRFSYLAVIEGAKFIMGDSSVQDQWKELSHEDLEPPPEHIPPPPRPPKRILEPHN
Put plainly: displacement assay of scFv antibodies from PTP1B-OX. In kind it is binding. The note with it: chelerythrine 0–20 μM. The procedure:
To test whether there was overlap in the binding site for chelerythrine and scFv antibodies that stabilized PTP1B-OX, we performed an in vitro competition binding assay using purified components. […] We focused on scFv106 and scFv67. Purified PTP1B (50 nM) was reversibly oxidized with 250 µM H2O2 followed by a buffer exchange to remove excess H2O2. Increasing concentration of purified scFv antibody (0–10 µM) was incubated with oxidized proteins in binding buffer (20 mM HEPES pH 7.4, 300 mM NaCl, 0.05% BSA, 0.05% Tween-20) for 2 h at 4 °C. Anti-HA agarose (Roche, 50% slurry equilibrated in the binding buffer) was added and incubated for 1 h at 4 °C. Protein complexes bound to anti-HA beads were precipitated and washed three times; first with lysis buffer followed by two more washes with wash buffer (25 mM HEPES pH 7.4, 100 mM NaCl, 0.05% BSA, 0.05% Tween-20, and protease inhibitors). The protein complex was incubated with varying concentrations of chelerythrine (0–20 µM) for 2 h at 4 °C, following which the beads were washed as described above. The complexes were resolved by SDS-PAGE and analyzed by immunoblotting.

The target in assay [1] is T2, K36A/K41A PTP1B-OX mutant (Homo sapiens, UniProt P18031, K36A/K41A).
T2 construct: PTP1B (1–321) and TCPTP (1–317) cloned in pET21b vector were used as templates; 6xHis (C); made in house; host or cells: E. coli BL21 (DE3)-RIL
T2 sequence (P18031 1-321 K36A/K41A): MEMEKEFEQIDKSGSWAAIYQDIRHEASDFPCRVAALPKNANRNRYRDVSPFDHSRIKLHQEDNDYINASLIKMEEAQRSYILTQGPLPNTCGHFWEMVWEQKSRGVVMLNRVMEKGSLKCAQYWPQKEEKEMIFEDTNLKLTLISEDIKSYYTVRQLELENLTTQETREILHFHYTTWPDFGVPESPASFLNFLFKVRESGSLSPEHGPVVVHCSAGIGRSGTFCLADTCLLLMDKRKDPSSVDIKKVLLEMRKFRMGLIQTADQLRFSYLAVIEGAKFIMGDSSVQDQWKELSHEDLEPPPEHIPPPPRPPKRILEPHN
Put plainly: reduction and reactivation of oxidized PTP1B-K36A/K41A, DiFMUP, TCEP. It counts as biochemical. On the procedure: Fig. 5 Chelerythrine and scFv45 inhibit reactivation of PTP1B-OX by a similar mechanism. a Molecular modeling of chelerythrine binding to PTP1B-OX, with critical residues for the interaction highlighted on the right. b Oxidized PTP1B-wt (circle), PTP1B-K36A/K41A (square) were incubated with increasing concentrations of chelerythrine (0–10 mM) and phosphatase activity was measured using DiFMUP as substrate in the presence of the reducing agent TCEP (5 mM). c Oxidized PTP1B-wt (circle), PTP1B-mut1 (square), or PTP1B-mut2 (diamond) were incubated with increasing concentrations of chelerythrine (0–10 mM) and phosphatase activity was measured using DiFMUP as substrate in the presence of the reducing agent TCEP (5 mM). Individual data points represent the mean obtained from three separate experiments (n = 3; b, c). d Overlay of crystal structures of the reduced (blue) and oxidized (gray) form of PTP1B.

The target of a further assay is T3, PTP1B-CASA-mut2 (Homo sapiens, UniProt P18031, C215A/K39E/K41R/L37F/S216A).
T3 construct: PTP1B (1–321) and TCPTP (1–317) cloned in pET21b vector were used as templates; made in house; host or cells: E. coli BL21 (DE3)-RIL
T3 sequence (P18031 1-321 L37F/K39E/K41R/C215A/S216A limits assumed): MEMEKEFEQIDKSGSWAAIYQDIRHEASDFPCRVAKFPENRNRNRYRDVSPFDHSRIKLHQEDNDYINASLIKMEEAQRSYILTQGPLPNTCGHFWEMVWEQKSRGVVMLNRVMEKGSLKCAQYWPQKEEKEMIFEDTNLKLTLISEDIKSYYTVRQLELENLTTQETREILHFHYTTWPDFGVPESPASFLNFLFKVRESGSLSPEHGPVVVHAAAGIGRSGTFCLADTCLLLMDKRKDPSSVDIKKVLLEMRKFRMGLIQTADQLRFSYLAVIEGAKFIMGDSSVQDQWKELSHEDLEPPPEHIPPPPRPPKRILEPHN
The experiment in a line: analytical size-exclusion chromatography. It counts as binding. The note with it: excess or limiting molar ratios. On the procedure: Recombinant PTP1B-CASA, PTP1B-CASA-mut2, and scFv45 were purified as described. Proteins were exchanged into freshly prepared 50 mM ammonium bicarbonate pH 8 (Fig. 2a; Supplementary Fig. 1) using 0.5 mL Zeba spin desalting columns 7K MWCO (Thermo Fisher Scientific) as per manufacturers protocol. Designated protein constructs or buffer equivalents were mixed at 1.1 or 1.4 molar excess (excess reciprocated for both PTP1B and scFv45) and incubated on ice 20 min prior to injection (20 µL injection loop; 4–10 µg total protein), separation, and detection on a Dionex Ultimate 3000 HPLC connected to an XBridge Protein BEH SEC 200 Å, 3.5 µm, 7.8 mm × 300 mm column (Waters) flowing 200 mM ammonium acetate pH 7.0 isocratically at 0.86 mL min^−1 and 25 °C, monitoring absorbance at λ 280 nm (Fig. 2a; Supplementary Fig. 1). Injections were performed intermittently with BEH200Å SEC Protein Standard Mix (amount corrected for 20 µL injection loop; Waters Corp.) to monitor peak resolution and retention time consistency among runs.

With `COc1ccc2c(c[n+](C)c3c4cc5c(cc4ccc23)OCO5)c1OC` [chelerythrine], the “competition with scFv106 for binding to PTP1B-OX” value at PTP1B-OX is “competed”. For the same molecule, in assay [1] (TCEP 5 mM, DiFMUP, read-out: IC50 against K36A/K41A PTP1B-OX mutant), the IC50 stood at 75 µM. In assay [1] (reviewer's summary in peer review file), the “inhibition of PTP1B-OX relative to K36AK41A PTP1B-OX” value stood at 15 fold.

B1: scFv45: recombinant conformation-sensor single-chain variable fragment antibody recognizing oxidized PTP1B (antibody, V domains shown)
VH: TVTLDESGGGLQAPGGALSLVCKASGFTFSSYDMGWIRQAPGKGLEYVAGITDNGRYASYGSAVDGRATISRDNGQSSVRLQLNNLRAEDTGTYYCARDDGSGWTGNSIDAWGHGTEVIVSE
VL: ALTQPSSVSANPGGTVKITCSGSSSAYGYGWYQQKSPGSAPVTVIYNNNKRPSNIPSRFSGSKSGSTGTLTITGVQAEDEAVYFCGSEDSSTDAIFGAGTTLTVL
As to B1, the “association with PTP1B-CASA-mut2” value with PTP1B-CASA-mut2 is recorded as “unable to associate”.
